Source: patent US7737153B2, “Heteroaryloxy-substituted phenylaminopyrimidines as rho-kinase inhibitors” (Bayer Schering Pharma Aktiengesellschaft, priority 2002, dated 2010)

Experiments:
[1] = tested on: isolated rings of the saphenous artery of rabbits; experiment: Vessel-relaxing action in vitro, phenylephrin-induced contractions of isolated saphenous artery rings; set-up: species or system rabbit; conditions: Oryctolagus cuniculus; contraction induced by 3×10^−8 g of phenylephrin/ml; concentration reducing control contraction by 50%
Protocol: (§1) The inhibition of the enzyme is investigated in an in vitro assay with recombinant Rho kinase II. The vessel-relaxing action is determined using phenylephrin-induced contractions of isolated rings of the saphenous artery of rabbits.
Vessel-Relaxing Action In Vitro
Individual 3-mm-wide rings of the isolated saphenous artery of rabbits are introduced into 5 ml organ baths with Krebs-Henseleit solution (37° C., gassed with carbogen). The vessel tone is monitored isometrically and registered. Contractions are induced by addition of 3×10^−8 g of phenylephrin/ml, which is washed out again after 4 min. After a number of control cycles, the rings are pre-incubated with the substance to be examined, with the dosage being increased for each further cycle, and the subsequent contraction is compared to the intensity of the last control contraction.

[2] = target: T1, recombinant Rho kinase II (ROKα) (Homo sapiens, UniProt O75116); experiment: Inhibition of recombinant Rho kinase II (ROKα), 33P uptake into S6 substrate peptide; format: biochemical; conditions: 33P-ATP, S6 phosphate-acceptor peptide, 20 min at 37° C., vs solvent control
T1 construct: purchased Upstate Biotechnology
T1 sequence (O75116 whole entry): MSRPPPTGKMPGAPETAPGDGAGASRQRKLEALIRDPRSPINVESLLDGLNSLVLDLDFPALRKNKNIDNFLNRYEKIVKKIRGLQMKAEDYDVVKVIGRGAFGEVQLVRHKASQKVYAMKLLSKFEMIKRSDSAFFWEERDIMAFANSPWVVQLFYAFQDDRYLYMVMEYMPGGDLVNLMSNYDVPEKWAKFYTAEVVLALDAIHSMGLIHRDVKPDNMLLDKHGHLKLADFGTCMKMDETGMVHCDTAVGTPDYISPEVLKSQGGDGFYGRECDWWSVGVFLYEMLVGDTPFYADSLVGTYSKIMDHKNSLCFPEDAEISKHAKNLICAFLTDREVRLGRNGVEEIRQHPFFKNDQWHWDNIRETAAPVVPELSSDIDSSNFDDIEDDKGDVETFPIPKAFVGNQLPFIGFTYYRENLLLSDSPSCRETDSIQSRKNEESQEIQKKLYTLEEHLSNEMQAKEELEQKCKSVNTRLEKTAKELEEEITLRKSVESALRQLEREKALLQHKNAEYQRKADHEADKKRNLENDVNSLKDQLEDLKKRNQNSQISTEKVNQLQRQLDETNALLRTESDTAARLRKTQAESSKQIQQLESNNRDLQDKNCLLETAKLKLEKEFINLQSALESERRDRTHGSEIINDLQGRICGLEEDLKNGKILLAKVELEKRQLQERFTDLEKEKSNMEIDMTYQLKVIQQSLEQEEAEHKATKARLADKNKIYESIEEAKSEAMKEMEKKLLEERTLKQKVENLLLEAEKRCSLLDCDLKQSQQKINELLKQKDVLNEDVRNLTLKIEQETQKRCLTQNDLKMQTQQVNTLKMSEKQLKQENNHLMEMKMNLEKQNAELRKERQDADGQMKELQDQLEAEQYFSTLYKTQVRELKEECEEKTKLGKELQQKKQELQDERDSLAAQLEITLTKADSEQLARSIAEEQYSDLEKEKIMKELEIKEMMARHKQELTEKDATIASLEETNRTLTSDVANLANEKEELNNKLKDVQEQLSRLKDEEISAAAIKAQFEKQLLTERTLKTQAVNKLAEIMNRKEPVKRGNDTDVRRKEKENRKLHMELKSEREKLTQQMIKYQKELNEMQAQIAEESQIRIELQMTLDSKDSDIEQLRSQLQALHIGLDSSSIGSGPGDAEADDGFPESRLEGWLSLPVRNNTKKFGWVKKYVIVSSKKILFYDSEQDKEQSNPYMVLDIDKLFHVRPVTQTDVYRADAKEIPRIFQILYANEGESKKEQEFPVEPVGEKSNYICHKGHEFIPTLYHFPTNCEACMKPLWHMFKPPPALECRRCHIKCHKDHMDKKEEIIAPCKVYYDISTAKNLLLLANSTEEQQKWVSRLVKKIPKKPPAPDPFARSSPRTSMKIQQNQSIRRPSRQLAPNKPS
Protocol: as §1
Inhibition of Recombinant Rho Kinase II (ROKα)
The activity of Rho kinase is determined by the uptake of ^33P phosphate into a substrate peptide. To this end, commercially available Rho kinase II (Upstate Biotechnology) is pre-incubated at 37° C. in the presence of the S6 phosphate-acceptor peptide with the test substances or a solvent control for 10 min. The kinase reaction is then started by addition of ^33P-labelled ATP. After 20 min at 37° C., the reaction is stopped by addition of H3PO4. Aliquots are pipetted onto filters and the filters are washed and then covered with scintillator. The radioactivity of the ^33P-labelled peptides bound to the filter is measured in a Micro-Beta counter.

IC50 [1] [µM] | IC50 [2] [µM] | SMILES
6.8 | – | Cc1n[nH]c2cccc(Oc3ccc(Nc4cc(-c5ccncc5)nc(N)n4)cc3F)c12 [Example 1, N-[2-Amino-6-(4-pyridinyl)-4-pyrimidinyl]-N-{3-fluoro-4-[(3-methyl-1H-indazol-4-yl)oxy]phenyl}amine]
1.02 | 0.02 | Nc1nc(Nc2ccc(Oc3ccc4[nH]ncc4c3)c(F)c2)cc(-c2ccncc2)n1 [Example 5, N-[2-Amino-6-(4-pyridinyl)-4-pyrimidinyl]-N-[3-fluoro-4-(1H-indazol-5-yloxy)-phenyl]amine]
4.33 | 0.03 | Nc1nc(Nc2ccc(Oc3ccc4[nH]ncc4c3)c(Cl)c2)cc(-c2ccncc2)n1 [Example 6]
6.7 | – | Nc1nc(Nc2ccc(Oc3ccc4cn[nH]c4c3)c(F)c2)cc(-c2ccncc2)n1 [Example 7]
0.35 | 0.006 | Nc1nc(Nc2ccc(Oc3ccc4[nH]ncc4c3)c(F)c2)cc(N2C[C@H]3CCCN[C@H]3C2)n1 [Example 11, 6-[(4aR,7aR)-Octahydro-6H-pyrrolo[3,4-b]pyridin-6-yl]-N-4-[3-fluoro-4-(1H-indazol-5-yloxy)phenyl]-2,4-pyrimidinediamine]
2.7 | 0.055 | Nc1nc(Nc2ccc(Oc3ccc4[nH]ncc4c3)c(F)c2)cc(N2C[C@@H]3CCCN[C@@H]3C2)n1 [Example 12]
2 | 0.009 | Nc1nc(Nc2ccc(Oc3ccc4[nH]ncc4c3)c(Cl)c2)cc(N2C[C@H]3CCCN[C@H]3C2)n1 [Example 13]
– | 0.02 | Nc1nc(Nc2ccc(Oc3ccc4[nH]ncc4c3)c(Cl)c2)cc(N[C@@H]2CCCC[C@H]2N)n1 [Example 15]
6.9 | 0.05 | Nc1nc(Nc2ccc(Oc3ccc4[nH]ncc4c3)c(F)c2)cc(N[C@@H]2CCCC[C@H]2N)n1 [Example 16]
– | 0.043 | Nc1nc(Nc2ccc(Oc3ccc4[nH]ncc4c3)c(F)c2)cc(-c2ccccc2)n1 [Example 18, N-(2-Amino-6-phenyl-4-pyrimidinyl)-N-[3-fluoro-4-(1H-indazol-5-yloxy)phenyl]amine]
0.26 | 0.001 | CN(CCO)CC1CCN(c2cc(Nc3ccc(Oc4ccnc5[nH]ccc45)c(F)c3)nc(N)n2)C1 (centres unmarked) [Example 68]
0.15 | – | CC(C)(C)NCc1cc(Nc2ccc(Oc3ccnc4[nH]ccc34)c(F)c2)nc(N)n1 [Example 116]
0.08 | – | Nc1nc(CN2CCCCC2)cc(Nc2ccc(Oc3ccnc4[nH]ccc34)c(F)c2)n1 [Example 117, N^4-[3-Fluoro-4-(1H-pyrrolo[2,3-b]pyridin-4-yloxy)phenyl]-6-(piperidin-1-ylmethyl)-pyrimidine-2,4-diamine]
